US6423689B1, “Peptidyl calcium channel blockers” (Warner-Lambert Company, priority 1997, dated 2002)
Read-outs that look alike come from different tables or passages of the source.

Legend:
DBA/2 mice = test: animal or person; assay type: in vivo; details: for responders at 30 mg/kg: Mus musculus, iv, read-out: Number of Mice Protected from Tonic Convulsions
Method: Audiogenic Seizure Model in DBA/2 Mice
In Vivo Biological Protocol
A compound of the present invention was dissolved in water using 10% (weight/volume) Emulphor (GAF Cop., Wayne N.J. surfactant. Substances were administered by intravenous injection the retro-orbital venous sinus. […] All the male mice, 3-4 weeks old were obtained from Jackson Laboratories Bar Harbour, Me. Immediately before anticonvulsant testing, mice were placed upon a wire mesh, 4 inches square suspended from a steel rod. The square was slowly inverted through 180 degree and mice observed for 30 seconds. Any mouse falling from the wire mesh was scored as ataxia.
Mice were placed into an enclosed acrylic plastic chamber (21 cm in height, approximately 30 cm diameter) with a high-frequency speaker (4 cm diameter) in the center of the top lid. An audio signal generator (Protek model B-810) was used to produce a continuous sinusoidal tone that was swept linearly in frequency between 8 kHz and 16 kHz once each 10 msec. The average sound pressure level (SPL) during stimulation was approximately 100 dB at the floor of the chamber. Mice were placed within the chamber and allowed to acclimatize for 1 minute. DBA/2 mice in the vehicle-treated group responded to the sound stimulus (applied until tonic extension occurred, or for a maximum of 60 sec) with a characteristic seizure sequence consisting of wild running followed by clonic seizures, and later by tonic extension, and finally by respiratory arrest and death in 80% or more of the mice. In vehicle-treated mice, the entire sequence of seizures to respiratory arrest lasts approximately 15-20 seconds.
The incidence of all the seizure phases in the drug-treated and vehicle-treated mice was recorded, and the occurrence of tonic seizures were used for calculating anticonvulsant ED50 values by probit analysis. Mice were used only once for testing at each time and dose point.

[1] = biological target: T1, N-type Ca2+ channels in IMR-32 cells (Homo sapiens, UniProt Q00975); test: Inhibition of N-type calcium flux in IMR-32 cells (Indo-1 fluorescence, nitrendipine present); assay type: cell-based; details: for IC50: IMR-32 cells, 5 μM nitrendipine, K+ depolarization; for inhibition at 1 µM / inhibition at 10 µM: IMR-32
T1 construct: host or cells: IMR-32 cells, differentiated with dibutyryl cAMP and bromodeoxyuridine
T1 sequence (Q00975 whole entry): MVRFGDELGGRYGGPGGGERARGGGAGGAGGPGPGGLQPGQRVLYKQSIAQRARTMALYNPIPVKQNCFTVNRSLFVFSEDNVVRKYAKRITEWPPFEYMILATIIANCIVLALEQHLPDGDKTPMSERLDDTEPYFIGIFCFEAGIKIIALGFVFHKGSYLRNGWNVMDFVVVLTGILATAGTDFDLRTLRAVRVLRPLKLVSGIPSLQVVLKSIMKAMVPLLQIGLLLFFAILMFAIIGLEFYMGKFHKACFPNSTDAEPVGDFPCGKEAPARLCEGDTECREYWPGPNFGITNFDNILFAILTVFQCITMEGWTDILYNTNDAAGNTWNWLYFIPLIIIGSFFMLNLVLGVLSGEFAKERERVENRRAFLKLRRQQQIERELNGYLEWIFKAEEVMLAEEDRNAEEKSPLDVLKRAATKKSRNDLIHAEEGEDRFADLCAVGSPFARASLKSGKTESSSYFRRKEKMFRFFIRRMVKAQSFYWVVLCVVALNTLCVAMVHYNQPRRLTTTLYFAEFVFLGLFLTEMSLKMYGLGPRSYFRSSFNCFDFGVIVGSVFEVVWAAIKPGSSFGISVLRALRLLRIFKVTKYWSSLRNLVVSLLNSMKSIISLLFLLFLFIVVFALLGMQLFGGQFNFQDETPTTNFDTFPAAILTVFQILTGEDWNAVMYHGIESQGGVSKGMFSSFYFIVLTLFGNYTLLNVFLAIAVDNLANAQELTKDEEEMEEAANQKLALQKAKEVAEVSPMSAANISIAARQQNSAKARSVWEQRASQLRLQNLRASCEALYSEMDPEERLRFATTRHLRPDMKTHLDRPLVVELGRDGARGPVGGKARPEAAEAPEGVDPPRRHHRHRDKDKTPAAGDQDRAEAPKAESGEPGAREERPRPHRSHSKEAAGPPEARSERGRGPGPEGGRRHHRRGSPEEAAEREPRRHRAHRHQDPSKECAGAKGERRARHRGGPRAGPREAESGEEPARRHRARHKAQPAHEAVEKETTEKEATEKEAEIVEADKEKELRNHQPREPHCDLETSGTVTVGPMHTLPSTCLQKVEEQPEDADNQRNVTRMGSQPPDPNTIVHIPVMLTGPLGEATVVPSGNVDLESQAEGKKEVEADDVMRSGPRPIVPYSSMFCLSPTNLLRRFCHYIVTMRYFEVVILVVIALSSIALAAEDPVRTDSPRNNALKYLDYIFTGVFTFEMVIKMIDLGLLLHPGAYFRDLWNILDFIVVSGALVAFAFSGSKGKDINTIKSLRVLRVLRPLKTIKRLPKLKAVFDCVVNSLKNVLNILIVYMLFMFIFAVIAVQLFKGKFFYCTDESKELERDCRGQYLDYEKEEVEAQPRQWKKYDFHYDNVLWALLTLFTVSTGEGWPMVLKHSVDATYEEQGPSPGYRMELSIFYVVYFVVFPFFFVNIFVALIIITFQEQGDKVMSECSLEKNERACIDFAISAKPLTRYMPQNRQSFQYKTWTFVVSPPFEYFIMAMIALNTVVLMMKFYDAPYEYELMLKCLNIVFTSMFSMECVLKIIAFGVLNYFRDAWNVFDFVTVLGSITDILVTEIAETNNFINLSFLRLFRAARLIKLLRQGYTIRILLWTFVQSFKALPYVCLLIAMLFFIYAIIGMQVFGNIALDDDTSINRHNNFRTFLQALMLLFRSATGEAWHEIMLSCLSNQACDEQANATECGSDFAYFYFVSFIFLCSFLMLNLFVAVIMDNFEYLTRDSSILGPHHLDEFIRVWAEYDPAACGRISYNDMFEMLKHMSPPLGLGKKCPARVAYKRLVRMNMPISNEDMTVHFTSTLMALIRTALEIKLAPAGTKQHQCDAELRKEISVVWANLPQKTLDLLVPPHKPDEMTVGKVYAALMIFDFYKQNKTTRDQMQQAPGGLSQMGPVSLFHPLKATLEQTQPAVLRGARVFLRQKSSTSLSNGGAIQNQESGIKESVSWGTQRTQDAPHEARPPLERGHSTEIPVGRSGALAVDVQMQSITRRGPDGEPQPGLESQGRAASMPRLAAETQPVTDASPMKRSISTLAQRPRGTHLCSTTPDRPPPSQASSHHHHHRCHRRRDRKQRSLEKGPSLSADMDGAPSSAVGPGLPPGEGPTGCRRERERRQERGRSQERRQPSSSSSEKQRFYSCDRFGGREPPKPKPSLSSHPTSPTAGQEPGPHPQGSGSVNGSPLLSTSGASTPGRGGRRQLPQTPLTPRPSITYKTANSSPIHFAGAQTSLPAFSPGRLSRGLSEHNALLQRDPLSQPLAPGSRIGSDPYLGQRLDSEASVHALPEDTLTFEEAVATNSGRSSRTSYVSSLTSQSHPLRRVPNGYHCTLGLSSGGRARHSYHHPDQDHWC
T1 sequence (P54289 25-956 partner limits assumed): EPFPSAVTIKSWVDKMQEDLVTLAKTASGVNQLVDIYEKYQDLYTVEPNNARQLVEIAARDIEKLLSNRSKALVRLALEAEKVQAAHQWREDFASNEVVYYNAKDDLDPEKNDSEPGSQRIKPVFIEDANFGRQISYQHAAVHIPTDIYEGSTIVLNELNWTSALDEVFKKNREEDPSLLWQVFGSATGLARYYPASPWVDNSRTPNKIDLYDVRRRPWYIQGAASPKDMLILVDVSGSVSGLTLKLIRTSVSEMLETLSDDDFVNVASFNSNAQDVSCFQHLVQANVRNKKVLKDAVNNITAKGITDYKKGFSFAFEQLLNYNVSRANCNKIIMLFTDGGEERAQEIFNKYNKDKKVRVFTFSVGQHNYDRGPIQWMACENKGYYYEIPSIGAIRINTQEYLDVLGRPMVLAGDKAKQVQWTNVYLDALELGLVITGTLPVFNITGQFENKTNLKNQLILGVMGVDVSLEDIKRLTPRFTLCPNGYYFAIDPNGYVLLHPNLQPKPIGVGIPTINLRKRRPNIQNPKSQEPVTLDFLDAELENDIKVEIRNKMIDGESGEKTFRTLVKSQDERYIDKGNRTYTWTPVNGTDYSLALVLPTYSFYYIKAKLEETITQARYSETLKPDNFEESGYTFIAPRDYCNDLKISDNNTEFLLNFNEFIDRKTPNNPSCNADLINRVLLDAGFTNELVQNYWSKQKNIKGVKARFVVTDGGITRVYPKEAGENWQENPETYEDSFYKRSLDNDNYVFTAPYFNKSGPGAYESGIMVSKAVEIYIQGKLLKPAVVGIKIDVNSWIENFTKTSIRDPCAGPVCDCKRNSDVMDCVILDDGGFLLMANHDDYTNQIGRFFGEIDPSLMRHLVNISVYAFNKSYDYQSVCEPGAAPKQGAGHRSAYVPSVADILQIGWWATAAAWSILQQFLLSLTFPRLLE
T1 sequence (P54289 957-1103 partner limits assumed): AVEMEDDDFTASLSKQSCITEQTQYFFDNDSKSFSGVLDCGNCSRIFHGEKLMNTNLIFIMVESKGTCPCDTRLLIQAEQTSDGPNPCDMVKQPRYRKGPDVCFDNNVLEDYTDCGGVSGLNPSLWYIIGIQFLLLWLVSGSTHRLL
T1 sequence (P54284 whole entry partner): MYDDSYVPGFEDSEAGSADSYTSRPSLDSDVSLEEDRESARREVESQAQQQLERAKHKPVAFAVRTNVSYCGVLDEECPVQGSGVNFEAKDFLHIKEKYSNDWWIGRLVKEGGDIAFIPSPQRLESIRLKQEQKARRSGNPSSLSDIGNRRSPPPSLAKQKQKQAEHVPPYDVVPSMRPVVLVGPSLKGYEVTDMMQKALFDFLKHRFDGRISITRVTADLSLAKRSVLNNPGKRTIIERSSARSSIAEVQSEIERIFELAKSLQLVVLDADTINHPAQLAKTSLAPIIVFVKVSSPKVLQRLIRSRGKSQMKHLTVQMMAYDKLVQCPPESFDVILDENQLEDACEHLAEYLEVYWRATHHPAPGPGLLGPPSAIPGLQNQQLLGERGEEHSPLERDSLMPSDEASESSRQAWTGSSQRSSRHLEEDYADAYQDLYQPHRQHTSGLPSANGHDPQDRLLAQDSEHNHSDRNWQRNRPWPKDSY
How it was run: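 Differentiated IMR-32 cells (7–13 days) were loaded with 5 μM Indo-1 AM, preincubated with compound for 10 min at 30° C, and depolarized with KCl/CaCl2 stimulation solution, with 5 μM nitrendipine blocking L-channels. Peak-minus-basal 400/490 nm emission ratio was plotted against drug concentration, and IC50 came from four-parameter logistic fits.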

[2] = test system: K+ channels in superior cervical ganglion (SCG) neurons; test: Whole-cell voltage clamp, K+ current in SCG neurons; assay type: cell-based, rat; details: 10 μM
How it was run: (§1)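 Acutely dissociated (trypsin) SCG neurons under whole-cell voltage clamp, external NaCl/KCl/HEPES buffer pH 7.4, K-gluconate/KCl pipette. From holding potential −65 to −55 mV, 35 msec steps every 10 sec to 0 mV (peak Na+ current) or +50 mV (sustained K+ current); compounds perfused locally to steady-state block, reported as percent inhibition of control.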

[3] = test system: Na+ channels in superior cervical ganglion (SCG) neurons; test: Whole-cell voltage clamp, Na+ current in SCG neurons; assay type: cell-based, rat; details: 10 μM
How it was run: as §1

[4] = biological target: T2, L-type Ca2+ channels in A10 cells (Rattus norvegicus, UniProt P22002); test: Inhibition of L-type calcium flux in A10 cells (FLIPR); assay type: cell-based
T2 construct: which endogenously expresses L-type calcium channels; host or cells: A10 rat aortic smooth muscle cells
Method: Measurement of L-type Ca^2+ Channel Blocking Potencies of Compounds in A10 cells
Calcium flux through voltage-sensitive calcium channels was assessed by time-resolved monitoring of the fluorescence of pre-loaded calcium-sensitive dyes using FLIPR, a fluorescent image plate reader (Molecular Devices Co.). The A10 smooth muscle cell line derived from embryonic thoracic aorta of the DBIX rat (ATCC, CRL-1476) which endogenously expresses L-type calcium channels. The growth media for A10 cells was Ham's F12/DME high glucose (Irvine Scientific, 9052), supplemented with 20% fetal bovine serum (HyClone Labs, A-1115-L), and 1% each of L-glutamine and antibiotic-antimycotic (same source as above).
Cells were grown to confluency and replated on black-sided 96-well plates (Costar, 3603) for use in FLIPR. Two days after replating, growth media was removed and cells were loaded at 37° C. with 100 μL media containing 1 μM Oregon Green 488 Bapta-1 dye (Molecular Probes, O-6807) for 1 to 3 hours. The dye-containing media was then washed away with buffer (composition in mM: 1.25 CaCl2, 1.2 MgSO4, 11 glucose, 10 HEPES, 3.0 KCl, 137.0 NaCl, pH 7.4 with Tris base) in a Denley Cellwash (Labsystems, CW018B). The residual buffer volume was adjusted to 50 μL. A 5 minute drug-pre-incubation period at 35° C. was initiated when 50 μL of drug-containing buffer was pipetted into the cell plate with the 96-well pipettor integrated in the FLIPR apparatus. Fluorescent counts were monitored at 20 second intervals for 360 seconds, beginning 60 seconds prior to the delivery of drug-containing buffer. Following drug addition, 100 μL aliquots of a high K^+, depolarizing stimulus (composition in mM: 1.25 CaCl2, 1.2 MgSO4, 11 glucose, 10 HEPES, 140.0 KCl, pH 7.4 with Tris base) were added to each well and fluorescence was monitored at 1 second intervals for 120 seconds, beginning 10 seconds prior to the stimulus addition. CCD camera exposure time was 0.4 seconds, laser excitation was at 488 nm with a power of 0.2-0.5W, and a 510 to 560 nm bandpass interference filter preceded the camera.
Data was analyzed as a summation of fluorescent counts above basal during the stimulation period (an approximation of area under the curve), after normalizing the data with a spatial uniformity correction (for variations in laser illumination and cell density) and a negative control correction (zero calcium increase defined as the fluorescence reading in the presence of saturating pharmacologic block of the respective calcium channel). Drug effects were expressed as percent inhibition of fluorescence from an average of 8 K^+-stimulated wells which were pre-treated in the drug incubation period with buffer only.
In the A10 cells, the pharmacologic agent used to define zero calcium influx was nitrendipine (RBI, N-144), at a final concentration of 1.0×10^−6 M.

[5] = 30 mg/Kg iv, 15 min post treatment
[6] = 30 mg/Kg iv, 45 min post treatment

| melting point | SMILES | IC50 [1] | IC50 [4] | responders at 30 mg/kg (DBA/2 mice; 0.25 h) | inhibition at 1 µM [1] | inhibition at 10 µM [1] | other results |
| --- | --- | --- | --- | --- | --- | --- | --- |
| – | CC(C)C[C@H](NC(=S)Nc1ccc(C(C)(C)C)cc1)C(=O)N[C@@H](Cc1ccc(OCc2ccccc2)cc1)C(=O)OC(C)(C)C (relative stereo) [Example 44, [S-(R*,R*)]-3-(4-Benzyloxy-phenyl)-2-{2-[3-(4-tert-butyl-phenyl)-thioureido]-4-methyl-pentanoylamino}-propionic acid, tert-butyl ester] | – | – | – | – | – | Number of Mice Protected from Tonic Convulsions (DBA/2 mice; [5]): 0/5; Inhibition of Calcium Flux in IMR-32 Cells % Inhibition at 1 μM [1]: 28%; Inhibition of Calcium Flux in IMR-32 Cells % Inhibition at 10 μM [1]: 71% |
| – | CC(C)C[C@H](NC(=O)N1CCCCCC1)C(=O)N[C@@H](Cc1ccc(OCc2ccccc2)cc1)C(=O)NC(CO)CO (relative stereo) [Example 257, [S-(R*,R*)]-Azepane-1-carboxylic acid {1-[2-(4-benzyloxy-phenyl)-1-(2-hydroxy-1-hydroxymethyl-ethylcarbamoyl)-ethylcarbamoyl]-3-methyl-butyl}-amide] | 1400 nM | – | – | – | – | Inhibition of K+ Current, % Inhibition at 10 μM [2]: 43%; Inhibition of Na+ Current, % Inhibition at 10 μM [3]: 5%; Dead mice (remark beside the protection count) (DBA/2 mice; [5]): (1 dead); Number of Mice Protected from Tonic Convulsions (DBA/2 mice; [5]): 3/4; Dead mice (remark beside the protection count) (DBA/2 mice; [6]): 2 (dead); Number of Mice Protected from Tonic Convulsions (DBA/2 mice; [6]): 3/3; Inhibition of Calcium Flux in IMR-32 Cells % Inhibition at 1 μM [1]: 42%; Inhibition of Calcium Flux in IMR-32 Cells % Inhibition at 10 μM [1]: 90% |
| – | CC(C)C[C@H](NC(=O)N1CCCCCC1)C(=O)N[C@@H](Cc1ccc(OCc2ccccc2)cc1)C(=O)NC1CCN(Cc2ccccc2)C1 (stereo in doubt) [Example 183, Azepane-1-carboxylic acid {(S)-1-[(S)-2-(4-benzyloxy-phenyl)-1-[1-benzyl-(S)-pyrrolidin-3-ylcarbamoyl]-ethylcarbamoyl]-3-methyl-butyl}-amide] | 300 nM | 220 nM | 100% | – | – | Dead mice (remark beside the protection count) (DBA/2 mice; mouse, in vivo): dead |
| 142 to 143 °C | CC(C)C[C@H](NS(=O)(=O)c1ccc(C(C)(C)C)cc1)C(=O)N[C@@H](Cc1ccc(OCc2ccccc2)cc1)C(=O)OC(C)(C)C [Example 36, [S-(R*,R*)]-3-(4-Benzyloxy-phenyl)-2(S)-[2(S)-(4-tert-butyl-benzenesulfonylamino)-4-methyl-pentanoylamino]-propionic acid tert-butyl ester] | 170 nM | 3000 nM | – | 71% | 86% | Inhibition of K+ Current, % Inhibition at 10 μM [2]: 92%; Inhibition of Na+ Current, % Inhibition at 10 μM [3]: 91% |
| 165 °C | CC(C)C[C@H](NC(=O)N1CCCCCC1)C(=O)N[C@@H](Cc1ccc(CCC2CCCCC2)cc1)C(=O)NC(C)(C)C [Example 146, [S-(R*,R*)]-Azepane-1-carboxylic acid (1-{1-tert-butylcarbamoyl-2-[4-(2-cyclohexyl-ethyl)-phenyl]-ethylcarbamoyl}-3-methyl-butyl)-amide] | – | 220 nM | – | 51% | – | – |
| 154 to 156 °C | CC(C)C[C@H](NC(=O)N1CCCCCC1)C(=O)N[C@@H](Cc1ccc(CCc2ccccn2)cc1)C(=O)NC(C)(C)C [Example 147, [S-(R*,R*)]-Azepane-1-carboxylic acid (1-{1-tert-butylcarbamoyl-2-[4-(2-pyridin-2-yl-ethyl)-phenyl]-ethylcarbamoyl}-3-methyl-butyl)-amide] | – | 5100 nM | – | 25% | 71% | – |
| 101 to 102 °C | CC(C)C[C@H](NC(=O)N1CCCCCC1)C(=O)N[C@@H](Cc1ccc(CCC2(O)CCCCC2)cc1)C(=O)NC(C)(C)C [Example 148, [S-(R*,R*)]-Azepane-1-carboxylic acid [1-(1-tert-butylcarbamoyl-2-{4-[2-(1-hydroxy-cyclohexyl)-ethyl]-phenyl}-ethylcarbamoyl)-3-methyl-butyl]-amide] | – | 970 nM | – | 30% | 68% | – |
| – | CC(C)C[C@H](NC(=O)N1CCCCCC1)C(=O)N[C@@H](Cc1ccc(OCc2ccccc2)cc1)C(=O)NCCN1CCCCC1 [Example 171, [S-(R*,R*)]-Azepane-1-carboxylic acid {1-[2-(4-benzyloxy-phenyl)-1-(2-piperidin-1-yl-ethylcarbamoyl)-ethylcarbamoyl]-3-methyl-butyl}-amide] | 460 nM | 270 nM | – | 62% | – | responders at 30 mg/kg (DBA/2 mice; 0.75 h): 0% |
| – | CC(C)C[C@H](NC(=O)N1CCCCCC1)C(=O)N[C@@H](Cc1ccc(OCc2ccccc2)cc1)C(=O)N1CCSCC1 [Example 221, [S-(R*,R*)]-Azepane-1-carboxylic acid {1-[1-(4-benzyloxy-benzyl)-2-thiomorpholin-4-yl-2-oxo-ethylcarbamoyl]-3-methyl-butyl}-amide] | – | 600 nM | 20% | 65% | 93% | responders at 30 mg/kg (DBA/2 mice; 0.75 h): 0% |
| – | CC(C)C[C@H](NC(=O)N1CCCCCC1)C(=O)N[C@@H](Cc1ccc(OCc2ccccc2)cc1)C(=O)NCCc1ccccn1 [Example 231] | 1110 nM | 670 nM | 0% | 55% | 95% | – |
| – | CC(C)CC(NC(=O)N1CCCCCC1)C(=O)NC(Cc1ccc(OCc2ccccc2)cc1)C(=O)NC(CO)C(C)C (stereo not drawn) [Example 253, Azepane-1-carboxylic acid {1-[2-(4-benzyloxy-phenyl)-1-(1-hydroxymethyl-2-methyl-propylcarbamoyl)-ethylcarbamoyl]-3-methyl-butyl}-amide] | 1100 nM | – | 0% | 60% | 93% | Inhibition of K+ Current, % Inhibition at 10 μM [2]: 62%; Inhibition of Na+ Current, % Inhibition at 10 μM [3]: 5% |
